According to publication PMC10489073 (Molecules, 2023):

Key:
[1] = target: T1, chymotrypsin-like (CT-L) activity of the 20S proteasome (Homo sapiens, UniProt P20618+P28074); experiment: 20S proteasome inhibition assay (Proteasome-Glo Chymotrypsin-Like); assay type: biochemical; conditions: n ≥ 3, SD <20% of the mean, read-out: IC50 toward Chymotrypsin-like (CT-L)
T1 construct: purchased R&D systems, Minneapolis, MN, USA
Method: The 20S proteasome inhibition assay was performed using the Proteasome-Glo™ Chymotrypsin-Like Assay kit (Promega, Alexandria, NSW, Australia). Suc-LLVY-aminoluciferin is a substate that can be cleaved by the 20S proteasome, release the […] (aminoluciferin) and allow the luciferase reaction to produce light. Gradient concentration of tested compounds and the purified 20S proteasome enzyme (R&D systems, Minneapolis, MN, USA) were successively added into a transparent 96-well plate and mixed thoroughly. Then, 50 µL of a […] reagent was added. Gently mix contents with a plate shaker at 300 to 500 rpm for 30 s. Incubate at room temperature for an hour. The luminescence was recorded via the Tecan Spark multimode microplate.

A2780 = experiment: Cell proliferation analysis (MTT); assay type: cell-based; conditions: Homo sapiens, 48 h, read-out: Anti-proliferative activity IC50, A2780
Method: (§1) All tumor cell lines in the current research were grown in a certain growth medium containing 10% FBS and 1% (v/v/v) penicillin–streptomycin–amphotericin at 37 °C in 5% CO2. Cells were seeded into 96-well plates at a density of 8 × 10^3 cells per well for tumor adherent cells and 2 × 10^4 cells per well for tumor-suspended cells in a final volume of 100 μL. After 12 h, 100 μL of various concentrations of compounds was added to each and incubated for 48 h. A 0.5% MTT solution was added per well before the intermixture was incubated for another 4 h, and formazan formed from MTT was extracted by adding […] of DMSO rocking for 15 min. Absorbance was measured at 570 nm using a Spark multimode microplate from Tecan. The IC50 values were calculated according to the inhibition ratios.

ARP-1 = experiment: Cell proliferation analysis (MTT); assay type: cell-based; conditions: 48 h, read-out: Anti-proliferative activity IC50, ARP-1
Method: as §1

HCT116 = experiment: Cell proliferation analysis (MTT); assay type: cell-based; conditions: Homo sapiens, HCT-116, 48 h, read-out: Anti-proliferative activity IC50, HCT116
Method: as §1

HEL = experiment: Cell proliferation analysis (MTT); assay type: cell-based; conditions: Homo sapiens, 48 h, read-out: Anti-proliferative activity IC50, HEL
Method: as §1

HT-29 = experiment: Cell proliferation analysis (MTT); assay type: cell-based; conditions: Homo sapiens, 48 h, read-out: Anti-proliferative activity IC50, HT-29
Method: as §1

Hela = experiment: Cell proliferation analysis (MTT); assay type: cell-based; conditions: Homo sapiens, 48 h, read-out: Anti-proliferative activity IC50, Hela
Method: as §1

KG1 = experiment: Cell proliferation analysis (MTT); assay type: cell-based; conditions: Homo sapiens, KG-1, 48 h, read-out: Anti-proliferative activity IC50, KG1
Method: as §1

MDA-MB-231 = experiment: Cell proliferation analysis (MTT); assay type: cell-based; conditions: Homo sapiens, 48 h, read-out: Anti-proliferative activity IC50, MDA-MB-231
Method: as §1

MM.1S = experiment: Cell proliferation analysis (MTT); assay type: cell-based; conditions: Homo sapiens, MM1.S, 48 h, read-out: Anti-proliferative activity IC50, MM.1S
Method: as §1

PC3 = experiment: Cell proliferation analysis (MTT); assay type: cell-based; conditions: Homo sapiens, PC-3, 48 h, read-out: Anti-proliferative activity IC50, PC3
Method: as §1

RPMI-8266 = experiment: Cell proliferation analysis (MTT); assay type: cell-based; conditions: RPMI8266, 48 h, read-out: Anti-proliferative activity IC50, RPMI-8266
Method: as §1

SP2 = experiment: Cell proliferation analysis (MTT); assay type: cell-based; conditions: 48 h, read-out: Anti-proliferative activity IC50, SP2
Method: as §1

U251 = experiment: Cell proliferation analysis (MTT); assay type: cell-based; conditions: Homo sapiens, U-251, 48 h, read-out: Anti-proliferative activity IC50, U251
Method: as §1

U266 = experiment: Cell proliferation analysis (MTT); assay type: cell-based; conditions: Homo sapiens, U-266, 48 h, read-out: Anti-proliferative activity IC50, U266
Method: as §1

[2] = tested on: cleaved caspase-3 in MM1.S cells; experiment: Western blot analysis, caspase-3 cleavage; assay type: cell-based; conditions: MM1.S, 1, 2 and 4 µM, 24 h
Method: MM1.S cells were seeded in 6-well plates with a density of 2.5 × 10^6 cells/well. Then, the cells were cultured with 1, 2, and 4 μM BC-05 and 10 nM ixazomib, respectively. After incubation for 24 h, the cells were collected, and total proteins were extracted via RIPA containing a 2% protease inhibitor cocktail. Cell lysates were centrifugated at 4 °C, 12,000 rpm for 15 min, and the supernatants were collected and quantified with BCA assay. After being boiled at 100 °C for 10 min in a NuPAGE lithium dodecyl sulfate (LDS) sample buffer (5X), equivalent samples were separated by 12% sodium dodecyl-sulfate polyacrylamide gel electrophoresis at 120 V, transferred to immune-blot poly(vinylidene fluoride) (PVDF) membranes (Merck Millipore, Burlington, MA, USA) at 4 °C and then blocked by 5% non-fat milk in TBST for an hour. The membranes were incubated overnight at 4 °C with certain primary antibodies, which were deliquates by an antibody dilution buffer (Boster Bio, Pleasanton, CA, USA) and then washed with TBST. After incubating with a horseradish (HRP)-conjugated secondary antibody for 1 h at room temperature, the membranes were washed five times with TBST for 5 min. The images were visualized on the Tanon-5200 Chemiluminescent Imaging System via luminol reaction. […]

[3] = Subacute toxicity experiment; assay type: in vivo; conditions: SD rats, male and female, 0.006, 0.02 and 0.06 mmol/kg p.o. twice a week, 30 days
Method: The animal experiments were conducted under the guidelines of the “Regulations for the Administration of Affairs Concerning Experimental Animals” (revised 2017, State Council No. 676). For the subacute toxicity study, 12 male and 12 female SD rats (purchased from the Weifang Medical University) were randomly divided into three treatment groups and a control group (n = 6, half male and half female). The rats in treatment groups were given 0.06 mmol/kg (p.o. BIW), 0.02 mmol/kg (p.o. BIW), and 0.006 mmol/kg (p.o. BIW) BC-05, respectively, for 30 days, while the rats in control groups were treated with the same volume of a vehicle solution. The rats were weighed each day and dissected at day 30. Behavioral abnormalities such as lethargy, ruffled fur, anorexia, clonic convulsion, and diarrhea were recorded throughout the entire experimental period.

## CC(C)C[C@H](NC(=O)[C@@H](O)[C@H](N)Cc1ccccc1)B1OC(=O)C(CC(=O)O)(CC(=O)O)O1 [BC-05, 2,2′-(2-((R)-1-((2S,3R)-3-amino-2-hydroxy-4-phenylbutanamido)-3-methylbutyl)-5-oxo-1,3,2-dioxaborolane-4,4-diyl)diacetic acid]
[1]
  IC50: 1.39 µM
A2780
  IC50: 33.7 ± 0.99 µM
ARP-1
  IC50: 10.2 ± 1.23 µM
HCT116
  IC50: 86.7 ± 7.34 µM
HEL
  IC50: 13.3 ± 2.81 µM
HT-29
  IC50: 12.5 ± 1.21 µM
Hela
  IC50: 83.1 ± 8.79 µM
KG1
  IC50: 41.6 ± 4.11 µM
MDA-MB-231
  IC50: 13.3 ± 0.49 µM
MM.1S
  IC50: 1.53 ± 0.24 µM
PC3
  IC50: 47.4 ± 4.22 µM
RPMI-8266
  IC50: 15.1 ± 2.23 µM
SP2
  IC50: 14.7 ± 4.91 µM
U251
  IC50: 47.5 ± 11.9 µM
U266
  IC50: 13.7 ± 1.43 µM
[2]
  Caspase-3 cleavage (Western blot): obvious
[3]
  body weight loss: did not exhibit any significant body weight loss
